Source: PubChem BioAssay (NCI)
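Following 48 hours of exposure in 96-well plates, responses at five concentrations were used to interpolate endpoints linearly. Here, GI50 denotes the concentration required for 50% inhibition of growth. Definition used: TGI = concentration required for complete inhibition of growth.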

Legend:
Experiment in all cases: DTP human tumour cell line panel, 48 h
SK-MEL-5 melanoma = system: SK-MEL-5 melanoma
MOLT-4 leukemia = system: MOLT-4 leukemia
786-0 renal = system: 786-0 renal
SF-539 CNS = system: SF-539 CNS
A498 renal = system: A498 renal
MDA-N = system: MDA-N
HT29 colon = system: HT29 colon
SNB-19 CNS = system: SNB-19 CNS
RPMI-8226 leukemia = system: RPMI-8226 leukemia
RXF 393 renal = system: RXF 393 renal
PC-3 prostate = system: PC-3 prostate
MDA-MB-231 breast = system: MDA-MB-231 breast
U251 CNS = system: U251 CNS
HCC-2998 colon = system: HCC-2998 colon
K-562 leukemia = system: K-562 leukemia
SNB-75 CNS = system: SNB-75 CNS
HOP-92 NSCLC = system: HOP-92 NSCLC
MDA-MB-435 = system: MDA-MB-435
SR leukemia = system: SR leukemia
MCF7 breast = system: MCF7 breast
UO-31 renal = system: UO-31 renal
OVCAR-5 ovarian = system: OVCAR-5 ovarian
OVCAR-8 ovarian = system: OVCAR-8 ovarian
NCI-H460 lung = system: NCI-H460 lung
ACHN renal = system: ACHN renal
A549 NSCLC = system: A549 NSCLC
HL-60(TB) leukemia = system: HL-60(TB) leukemia
T-47D breast = system: T-47D breast
NCI-H522 lung = system: NCI-H522 lung
OVCAR-3 ovarian = system: OVCAR-3 ovarian
BT-549 breast = system: BT-549 breast
UACC-257 melanoma = system: UACC-257 melanoma
DU-145 prostate = system: DU-145 prostate
SN12C renal = system: SN12C renal
CAKI-1 renal = system: CAKI-1 renal
HOP-62 NSCLC = system: HOP-62 NSCLC
OVCAR-4 ovarian = system: OVCAR-4 ovarian
NCI-H226 lung = system: NCI-H226 lung
IGROV1 ovarian = system: IGROV1 ovarian
NCI/ADR-RES ovarian = system: NCI/ADR-RES ovarian
M14 melanoma = system: M14 melanoma
SF-295 CNS = system: SF-295 CNS
SK-MEL-2 melanoma = system: SK-MEL-2 melanoma
SF-268 CNS = system: SF-268 CNS
KM12 colon = system: KM12 colon
TK-10 renal = system: TK-10 renal
UACC-62 melanoma = system: UACC-62 melanoma
COLO 205 colon = system: COLO 205 colon
MALME-3M melanoma = system: MALME-3M melanoma
LOX IMVI melanoma = system: LOX IMVI melanoma
HCT-15 colon = system: HCT-15 colon
SK-OV-3 ovarian = system: SK-OV-3 ovarian
EKVX NSCLC = system: EKVX NSCLC
SW-620 colon = system: SW-620 colon
NCI-H23 lung = system: NCI-H23 lung
HS 578T breast = system: HS 578T breast
HCT-116 colon = system: HCT-116 colon
SK-MEL-28 melanoma = system: SK-MEL-28 melanoma
CCRF-CEM leukemia = system: CCRF-CEM leukemia

## CC(=C/c1ccccc1)/C=C1/NC(=S)N(/C=C2\C(=O)Oc3ccccc3C2=O)C1=O
SK-MEL-5 melanoma
  TGI: > 86.9 µM
MOLT-4 leukemia
  TGI: > 100 µM
786-0 renal
  GI50: 57.6 µM
  TGI: > 100 µM
SF-539 CNS
  TGI: > 100 µM
A498 renal
  TGI: > 100 µM
MDA-N
  TGI: > 100 µM
HT29 colon
  GI50: > 100 µM
  TGI: > 100 µM
SNB-19 CNS
  TGI: > 100 µM
RPMI-8226 leukemia
  TGI: > 100 µM
RXF 393 renal
  TGI: > 52.4 µM
PC-3 prostate
  TGI: > 100 µM
MDA-MB-231 breast
  TGI: > 100 µM
U251 CNS
  TGI: > 100 µM
HCC-2998 colon
  TGI: > 100 µM
K-562 leukemia
  TGI: > 100 µM
SNB-75 CNS
  TGI: > 100 µM
HOP-92 NSCLC
  TGI: > 65 µM
MDA-MB-435
  TGI: > 100 µM
SR leukemia
  TGI: > 100 µM
MCF7 breast
  TGI: > 100 µM
UO-31 renal
  GI50: 91.7 µM
  TGI: > 100 µM
OVCAR-5 ovarian
  TGI: > 100 µM
OVCAR-8 ovarian
  TGI: > 100 µM
NCI-H460 lung
  TGI: > 100 µM
ACHN renal
  TGI: > 100 µM
A549 NSCLC
  TGI: > 100 µM
HL-60(TB) leukemia
  TGI: > 100 µM
T-47D breast
  TGI: > 100 µM
NCI-H522 lung
  TGI: > 90.5 µM
OVCAR-3 ovarian
  TGI: > 100 µM
BT-549 breast
  GI50: 36.8 µM
  TGI: > 100 µM
UACC-257 melanoma
  TGI: > 100 µM
DU-145 prostate
  TGI: > 100 µM
SN12C renal
  TGI: > 100 µM
CAKI-1 renal
  GI50: 59.7 µM
  TGI: > 100 µM
HOP-62 NSCLC
  TGI: > 100 µM
OVCAR-4 ovarian
  TGI: > 100 µM
NCI-H226 lung
  TGI: > 100 µM
IGROV1 ovarian
  GI50: 86.7 µM
  TGI: > 100 µM
NCI/ADR-RES ovarian
  TGI: > 100 µM
M14 melanoma
  TGI: > 100 µM
SF-295 CNS
  TGI: > 100 µM
SK-MEL-2 melanoma
  TGI: > 100 µM
SF-268 CNS
  TGI: > 100 µM
KM12 colon
  TGI: > 100 µM
TK-10 renal
  TGI: > 100 µM
UACC-62 melanoma
  GI50: 40.7 µM
  TGI: > 100 µM
COLO 205 colon
  TGI: > 100 µM
MALME-3M melanoma
  GI50: > 100 µM
  TGI: > 100 µM
LOX IMVI melanoma
  TGI: > 100 µM
HCT-15 colon
  TGI: > 100 µM
SK-OV-3 ovarian
  GI50: > 100 µM
  TGI: > 100 µM
EKVX NSCLC
  TGI: > 100 µM
SW-620 colon
  GI50: > 100 µM
  TGI: > 100 µM
NCI-H23 lung
  TGI: > 100 µM
HS 578T breast
  GI50: > 100 µM
  TGI: > 100 µM
HCT-116 colon
  TGI: > 100 µM
SK-MEL-28 melanoma
  TGI: > 100 µM
CCRF-CEM leukemia
  TGI: > 100 µM
